Assay type in all cases: biochemical
In one assay the target is T1, Kdr (Homo sapiens, UniProt P35968).
T1 construct: Kinases are expressed as either kinase domains or full length constructs; made in house
In words: Kinase inhibition assay (33P transfer), Kdr. To be noted: Table 3; for IC50: read-out: KDR-1. In short, it runs like this: (§1)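 GST/His-tagged kinase (domain or full length; E. coli or baculovirus) + [33P]ATP on plates coated with poly(Glu,Tyr) 4:1 or poly(Arg,Ser) 3:1; incubate, wash 0.5% H3PO4, add scintillant, count.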

The target of a further assay is T2, Zap-70 (Homo sapiens, UniProt P43403).
T2 construct: Kinases are expressed as either kinase domains or full length constructs; made in house
T2 sequence (P43403 1-619): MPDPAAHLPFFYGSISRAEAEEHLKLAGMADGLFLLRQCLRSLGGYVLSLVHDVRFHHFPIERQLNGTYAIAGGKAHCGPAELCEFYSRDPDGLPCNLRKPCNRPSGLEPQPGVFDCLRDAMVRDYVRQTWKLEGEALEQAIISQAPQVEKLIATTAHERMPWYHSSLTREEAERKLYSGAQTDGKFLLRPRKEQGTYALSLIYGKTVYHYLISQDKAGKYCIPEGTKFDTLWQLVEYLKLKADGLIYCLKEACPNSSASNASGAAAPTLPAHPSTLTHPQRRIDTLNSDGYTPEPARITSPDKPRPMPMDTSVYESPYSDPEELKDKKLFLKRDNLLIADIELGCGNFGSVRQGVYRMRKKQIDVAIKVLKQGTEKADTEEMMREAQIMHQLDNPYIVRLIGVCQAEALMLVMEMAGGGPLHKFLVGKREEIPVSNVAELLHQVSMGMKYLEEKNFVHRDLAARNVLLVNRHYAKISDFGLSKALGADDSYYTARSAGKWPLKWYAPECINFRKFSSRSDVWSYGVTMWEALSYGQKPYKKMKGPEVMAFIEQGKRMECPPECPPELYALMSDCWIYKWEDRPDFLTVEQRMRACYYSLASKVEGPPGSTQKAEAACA
In words: Kinase inhibition assay (33P transfer), Zap-70. To be noted: Table 3; for IC50: read-out: Zap-1. In short, it runs like this: as §1

The next assay has as its target T3, EPHB4 (Homo sapiens, UniProt P54760).
T3 construct: Kinases are expressed as either kinase domains or full length constructs; made in house
T3 sequence (P54760 16-987): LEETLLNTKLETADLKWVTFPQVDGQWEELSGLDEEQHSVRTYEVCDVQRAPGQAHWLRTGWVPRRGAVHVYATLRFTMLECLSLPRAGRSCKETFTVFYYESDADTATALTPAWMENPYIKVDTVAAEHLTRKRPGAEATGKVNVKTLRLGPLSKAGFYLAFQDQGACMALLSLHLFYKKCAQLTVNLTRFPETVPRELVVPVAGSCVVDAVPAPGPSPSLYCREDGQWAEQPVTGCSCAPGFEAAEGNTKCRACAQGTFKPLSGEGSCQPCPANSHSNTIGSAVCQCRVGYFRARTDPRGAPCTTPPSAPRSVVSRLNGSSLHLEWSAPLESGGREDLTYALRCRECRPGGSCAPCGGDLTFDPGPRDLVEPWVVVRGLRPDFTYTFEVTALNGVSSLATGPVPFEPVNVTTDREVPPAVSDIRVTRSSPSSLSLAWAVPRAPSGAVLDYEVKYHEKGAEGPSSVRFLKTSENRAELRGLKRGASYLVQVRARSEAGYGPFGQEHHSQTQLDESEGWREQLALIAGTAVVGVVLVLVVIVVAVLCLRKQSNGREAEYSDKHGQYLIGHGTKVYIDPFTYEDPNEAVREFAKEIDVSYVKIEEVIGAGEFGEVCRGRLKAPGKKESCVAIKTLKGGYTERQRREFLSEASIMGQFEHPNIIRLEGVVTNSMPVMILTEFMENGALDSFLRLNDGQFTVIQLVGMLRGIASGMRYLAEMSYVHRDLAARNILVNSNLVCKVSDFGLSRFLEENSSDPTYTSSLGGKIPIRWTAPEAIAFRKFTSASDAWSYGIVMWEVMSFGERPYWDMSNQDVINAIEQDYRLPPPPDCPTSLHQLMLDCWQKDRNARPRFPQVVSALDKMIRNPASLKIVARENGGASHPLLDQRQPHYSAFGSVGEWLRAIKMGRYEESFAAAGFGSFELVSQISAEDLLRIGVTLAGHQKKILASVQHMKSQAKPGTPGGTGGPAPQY
In words: Kinase inhibition assay (33P transfer), EPHB4. The note with it: for IC50: read-out: EPHB4-1.

In another assay the target is T4, Lck (Homo sapiens, UniProt P06239).
T4 construct: Kinases are expressed as either kinase domains or full length constructs; made in house
T4 sequence (P06239 whole entry, species assumed, the tested form may be a part): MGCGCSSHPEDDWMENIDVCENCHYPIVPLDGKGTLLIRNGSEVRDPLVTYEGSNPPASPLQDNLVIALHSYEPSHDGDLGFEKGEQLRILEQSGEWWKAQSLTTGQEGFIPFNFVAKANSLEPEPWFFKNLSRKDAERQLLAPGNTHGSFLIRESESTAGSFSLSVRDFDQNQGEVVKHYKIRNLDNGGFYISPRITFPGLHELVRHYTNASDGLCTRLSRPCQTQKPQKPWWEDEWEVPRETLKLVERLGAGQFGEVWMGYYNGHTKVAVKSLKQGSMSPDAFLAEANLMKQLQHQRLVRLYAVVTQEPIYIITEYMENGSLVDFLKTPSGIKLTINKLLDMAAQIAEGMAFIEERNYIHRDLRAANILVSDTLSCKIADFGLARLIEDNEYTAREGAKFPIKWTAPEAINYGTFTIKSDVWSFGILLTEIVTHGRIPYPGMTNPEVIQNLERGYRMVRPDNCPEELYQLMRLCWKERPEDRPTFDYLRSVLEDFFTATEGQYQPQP
Put plainly: Kinase inhibition assay (33P transfer), Lck. The note with it: Table 3; for IC50: read-out: Lck-1. The method in brief: as §1

Another assay deals with T5, Itk (Homo sapiens, UniProt Q08881).
T5 construct: Kinases are expressed as either kinase domains or full length constructs; made in house
T5 sequence (Q08881 1-620): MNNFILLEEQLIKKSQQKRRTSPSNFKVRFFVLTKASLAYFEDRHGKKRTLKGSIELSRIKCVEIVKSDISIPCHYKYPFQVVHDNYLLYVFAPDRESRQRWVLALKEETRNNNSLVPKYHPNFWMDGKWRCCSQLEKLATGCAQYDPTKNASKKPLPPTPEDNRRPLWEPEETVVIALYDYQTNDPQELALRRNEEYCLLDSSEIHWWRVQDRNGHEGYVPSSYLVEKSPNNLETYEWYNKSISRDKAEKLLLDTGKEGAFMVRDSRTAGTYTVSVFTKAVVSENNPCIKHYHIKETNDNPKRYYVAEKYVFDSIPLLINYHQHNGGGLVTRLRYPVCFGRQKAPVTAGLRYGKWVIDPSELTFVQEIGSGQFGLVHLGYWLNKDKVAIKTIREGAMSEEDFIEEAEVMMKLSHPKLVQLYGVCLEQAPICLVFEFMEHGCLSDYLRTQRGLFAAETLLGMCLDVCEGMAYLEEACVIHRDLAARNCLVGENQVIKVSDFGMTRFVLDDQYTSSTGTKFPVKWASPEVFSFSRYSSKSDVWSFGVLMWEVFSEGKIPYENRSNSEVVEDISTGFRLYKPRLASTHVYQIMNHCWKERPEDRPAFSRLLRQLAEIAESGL
Put plainly: Kinase inhibition assay (33P transfer), Itk. The note with it: Table 3; for IC50: read-out: Itk-1. The method in brief: (§2)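 Kinase domains or full-length enzymes, GST- or polyHis-tagged, were expressed in E. coli or baculovirus High Five cells and affinity-purified. Transfer of 33PO4 from ATP onto plate-bound poly(Glu,Tyr) 4:1 or poly(Arg,Ser) 3:1 was counted by liquid scintillation after a 0.5% phosphoric acid wash. IC50 = concentration halving incorporation.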

A further assay addresses T6, c-Met (Homo sapiens, UniProt P08581).
T6 construct: Kinases are expressed as either kinase domains or full length constructs; made in house
In words: Kinase inhibition assay (33P transfer), c-Met. To be noted: Table 2, kinase inhibition class; for IC50: read-out: Met-1. In short, it runs like this:
as §2

A further assay addresses T7, Tek (Homo sapiens, UniProt Q02763).
T7 construct: Kinases are expressed as either kinase domains or full length constructs; made in house
Put plainly: Kinase inhibition assay (33P transfer), Tek. The note with it: read-out: Tek-1. In short, it runs like this:
as §2

The next assay addresses T8, EGFR (Homo sapiens, UniProt P00533).
T8 construct: Kinases are expressed as either kinase domains or full length constructs; made in house
In words: Kinase inhibition assay (33P transfer), EGFR. To be noted: Table 2, kinase inhibition class; for IC50: read-out: EGFR-1. In short, it runs like this: as §2

For the next assay, the target named is T9, IGFR-1 (Homo sapiens, UniProt P08069).
T9 construct: Kinases are expressed as either kinase domains or full length constructs; made in house
T9 sequence (P08069 31-1367): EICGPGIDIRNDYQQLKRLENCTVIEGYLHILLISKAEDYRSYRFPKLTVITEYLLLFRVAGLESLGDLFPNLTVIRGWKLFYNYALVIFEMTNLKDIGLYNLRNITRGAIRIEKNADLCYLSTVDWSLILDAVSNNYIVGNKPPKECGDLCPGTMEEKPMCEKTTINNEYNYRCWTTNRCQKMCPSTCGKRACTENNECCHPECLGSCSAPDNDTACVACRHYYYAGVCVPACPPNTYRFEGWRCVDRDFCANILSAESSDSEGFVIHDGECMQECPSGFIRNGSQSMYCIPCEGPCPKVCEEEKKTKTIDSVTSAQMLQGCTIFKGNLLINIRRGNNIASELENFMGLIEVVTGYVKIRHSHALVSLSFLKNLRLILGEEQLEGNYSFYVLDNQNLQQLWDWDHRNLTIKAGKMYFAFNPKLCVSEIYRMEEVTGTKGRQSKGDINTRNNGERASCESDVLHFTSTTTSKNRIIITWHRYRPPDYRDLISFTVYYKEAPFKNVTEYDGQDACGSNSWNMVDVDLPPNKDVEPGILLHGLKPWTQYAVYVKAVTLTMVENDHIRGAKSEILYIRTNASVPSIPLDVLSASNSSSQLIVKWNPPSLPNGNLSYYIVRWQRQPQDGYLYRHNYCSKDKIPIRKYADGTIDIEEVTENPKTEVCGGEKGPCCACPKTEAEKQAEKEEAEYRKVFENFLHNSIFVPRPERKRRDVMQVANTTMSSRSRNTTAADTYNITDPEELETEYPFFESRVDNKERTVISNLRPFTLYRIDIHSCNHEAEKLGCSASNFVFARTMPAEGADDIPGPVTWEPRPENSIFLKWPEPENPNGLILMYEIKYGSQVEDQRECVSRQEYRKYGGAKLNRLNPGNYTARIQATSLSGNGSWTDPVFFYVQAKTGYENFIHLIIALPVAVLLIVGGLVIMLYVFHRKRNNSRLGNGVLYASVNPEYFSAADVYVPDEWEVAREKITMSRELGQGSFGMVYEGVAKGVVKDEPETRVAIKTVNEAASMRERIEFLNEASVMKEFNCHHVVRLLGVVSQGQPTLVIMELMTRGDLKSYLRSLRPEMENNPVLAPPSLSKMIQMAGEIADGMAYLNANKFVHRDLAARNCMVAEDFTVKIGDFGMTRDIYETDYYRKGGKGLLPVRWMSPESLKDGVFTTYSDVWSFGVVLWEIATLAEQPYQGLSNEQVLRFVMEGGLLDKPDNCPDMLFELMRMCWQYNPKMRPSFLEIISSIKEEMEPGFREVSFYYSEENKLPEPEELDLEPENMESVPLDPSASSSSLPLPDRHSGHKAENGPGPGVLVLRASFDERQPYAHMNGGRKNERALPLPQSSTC
In words: Kinase inhibition assay (33P transfer), IGFR-1. To be noted: Table 2, kinase inhibition class.

The target in another assay is T10, AKT (Homo sapiens, UniProt Q9Y243).
T10 construct: Kinases are expressed as either kinase domains or full length constructs; made in house
T10 sequence (Q9Y243 whole entry, the tested form may be a part): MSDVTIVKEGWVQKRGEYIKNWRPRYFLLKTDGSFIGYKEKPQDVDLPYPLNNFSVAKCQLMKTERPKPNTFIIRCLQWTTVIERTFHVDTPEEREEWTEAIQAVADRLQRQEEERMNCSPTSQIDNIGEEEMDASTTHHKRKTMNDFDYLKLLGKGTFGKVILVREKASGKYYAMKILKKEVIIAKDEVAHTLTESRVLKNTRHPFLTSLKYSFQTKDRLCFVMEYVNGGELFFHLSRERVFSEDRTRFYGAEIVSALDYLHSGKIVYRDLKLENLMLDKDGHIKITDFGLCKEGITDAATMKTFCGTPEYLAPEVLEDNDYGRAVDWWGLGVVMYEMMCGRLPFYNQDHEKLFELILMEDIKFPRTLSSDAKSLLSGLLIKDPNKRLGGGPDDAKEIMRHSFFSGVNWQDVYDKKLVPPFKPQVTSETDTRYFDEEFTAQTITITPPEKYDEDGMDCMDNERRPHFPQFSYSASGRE
Put plainly: Kinase inhibition assay (33P transfer), AKT. To be noted: Table 2, kinase inhibition class; for IC50: read-out: AKT3-1. In short, it runs like this:
as §1

Where only a bound is given, the exact number is not on record here.

T8 sequence (P00533 25-1210, species assumed): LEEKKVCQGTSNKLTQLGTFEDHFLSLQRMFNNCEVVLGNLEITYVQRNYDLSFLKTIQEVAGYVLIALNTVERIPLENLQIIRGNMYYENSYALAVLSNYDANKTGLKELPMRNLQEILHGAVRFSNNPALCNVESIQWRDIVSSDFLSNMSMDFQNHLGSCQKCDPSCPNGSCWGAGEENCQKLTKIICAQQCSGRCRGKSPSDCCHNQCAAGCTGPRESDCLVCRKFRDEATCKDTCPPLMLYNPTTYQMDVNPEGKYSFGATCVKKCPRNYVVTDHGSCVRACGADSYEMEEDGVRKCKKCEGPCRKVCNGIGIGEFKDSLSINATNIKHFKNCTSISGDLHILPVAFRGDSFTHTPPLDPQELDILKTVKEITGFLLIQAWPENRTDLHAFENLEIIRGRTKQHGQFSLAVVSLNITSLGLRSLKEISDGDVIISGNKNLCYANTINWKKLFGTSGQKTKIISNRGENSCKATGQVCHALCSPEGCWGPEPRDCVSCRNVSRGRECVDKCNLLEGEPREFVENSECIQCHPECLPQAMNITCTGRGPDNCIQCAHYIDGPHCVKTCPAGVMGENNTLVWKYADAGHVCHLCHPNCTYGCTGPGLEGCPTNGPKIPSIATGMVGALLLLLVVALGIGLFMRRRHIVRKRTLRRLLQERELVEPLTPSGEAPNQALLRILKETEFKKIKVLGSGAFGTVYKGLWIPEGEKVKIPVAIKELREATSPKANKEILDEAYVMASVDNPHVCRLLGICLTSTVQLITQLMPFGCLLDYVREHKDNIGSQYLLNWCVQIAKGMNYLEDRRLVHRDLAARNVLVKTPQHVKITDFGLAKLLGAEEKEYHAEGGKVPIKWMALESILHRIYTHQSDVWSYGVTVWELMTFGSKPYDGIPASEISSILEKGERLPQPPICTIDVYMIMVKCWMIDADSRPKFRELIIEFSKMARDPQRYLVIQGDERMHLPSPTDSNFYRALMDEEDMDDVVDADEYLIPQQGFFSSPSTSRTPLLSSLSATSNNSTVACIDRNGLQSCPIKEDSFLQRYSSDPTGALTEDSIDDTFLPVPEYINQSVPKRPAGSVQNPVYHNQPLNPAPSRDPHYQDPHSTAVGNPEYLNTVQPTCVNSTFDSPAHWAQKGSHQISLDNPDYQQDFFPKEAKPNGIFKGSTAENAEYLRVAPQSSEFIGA
T6 sequence (P08581 25-1390): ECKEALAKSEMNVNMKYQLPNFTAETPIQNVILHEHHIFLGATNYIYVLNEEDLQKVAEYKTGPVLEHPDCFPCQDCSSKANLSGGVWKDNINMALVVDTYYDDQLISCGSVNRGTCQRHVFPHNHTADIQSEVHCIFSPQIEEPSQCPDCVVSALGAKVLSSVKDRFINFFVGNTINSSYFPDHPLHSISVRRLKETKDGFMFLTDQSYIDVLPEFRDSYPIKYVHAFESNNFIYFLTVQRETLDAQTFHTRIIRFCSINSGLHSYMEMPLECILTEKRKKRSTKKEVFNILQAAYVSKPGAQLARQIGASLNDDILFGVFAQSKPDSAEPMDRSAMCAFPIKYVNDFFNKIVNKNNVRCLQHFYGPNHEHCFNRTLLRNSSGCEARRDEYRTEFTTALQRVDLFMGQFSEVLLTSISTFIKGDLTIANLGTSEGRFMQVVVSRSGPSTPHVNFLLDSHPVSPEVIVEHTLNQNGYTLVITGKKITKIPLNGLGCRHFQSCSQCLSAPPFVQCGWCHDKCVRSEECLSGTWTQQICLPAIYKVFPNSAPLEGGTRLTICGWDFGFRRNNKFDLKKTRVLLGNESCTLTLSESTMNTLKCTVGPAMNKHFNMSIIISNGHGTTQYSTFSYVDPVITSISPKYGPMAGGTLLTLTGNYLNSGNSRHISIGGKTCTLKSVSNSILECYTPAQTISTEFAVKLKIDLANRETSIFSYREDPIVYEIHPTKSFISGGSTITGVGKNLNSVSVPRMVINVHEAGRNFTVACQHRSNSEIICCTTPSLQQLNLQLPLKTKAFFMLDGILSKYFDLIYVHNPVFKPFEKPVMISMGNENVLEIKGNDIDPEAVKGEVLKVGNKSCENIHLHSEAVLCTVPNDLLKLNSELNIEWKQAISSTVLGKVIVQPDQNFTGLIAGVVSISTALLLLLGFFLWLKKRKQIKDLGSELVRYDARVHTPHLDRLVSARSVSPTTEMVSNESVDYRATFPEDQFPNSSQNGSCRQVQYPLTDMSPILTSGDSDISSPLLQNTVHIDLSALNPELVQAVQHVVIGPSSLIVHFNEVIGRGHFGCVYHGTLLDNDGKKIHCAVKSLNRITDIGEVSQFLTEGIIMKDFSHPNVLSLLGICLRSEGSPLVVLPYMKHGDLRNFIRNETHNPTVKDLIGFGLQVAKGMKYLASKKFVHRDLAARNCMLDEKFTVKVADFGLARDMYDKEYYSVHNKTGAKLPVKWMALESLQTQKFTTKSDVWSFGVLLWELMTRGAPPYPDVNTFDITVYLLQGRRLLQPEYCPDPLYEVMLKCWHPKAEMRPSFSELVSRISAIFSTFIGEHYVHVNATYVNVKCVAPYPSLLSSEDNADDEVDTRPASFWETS

With `COc1ccc(Nc2ncnc(N(CC(=O)OC(C)(C)C)c3ccc(Cl)cc3)n2)cc1OC` [Compound 973], the IC50 is over 9.54 µM on Kdr; over 9.54 µM at Zap-70; 5.09 to 7.42 µM at EPHB4; 5.09 to 7.42 µM at Lck; over 9.54 µM at Itk; over 9.54 µM on c-Met. Moreover, the IC50 was over 9.54 µM on Tek, 0.848 to 5.09 µM on EGFR, over 9.54 µM against IGFR-1 and over 9.54 µM at AKT.
Turning to `COC(=O)c1cc(Nc2ncnc(Nc3cc(-c4ccco4)n[nH]3)n2)cc(C(=O)OC)c1` [Compound 343], the IC50 on Kdr was 0.919 to 5.51 µM; on Zap-70, over 10.3 µM; at EPHB4, 0.919 to 5.51 µM; on Lck, over 10.3 µM; at Itk, over 10.3 µM; on c-Met, 8.04 to 10.3 µM. In addition, the IC50 at EGFR is over 10.3 µM; against IGFR-1, 0.919 to 5.51 µM; at AKT, over 10.3 µM.
For the molecule `COc1cc(C)c(Nc2ncnc(Nc3cc(-c4ccco4)n[nH]3)n2)cc1OC` [Compound 338], the IC50 is 1.02 to 6.1 µM on Kdr; over 11.4 µM at Zap-70; 6.1 to 8.9 µM at EPHB4; 1.02 to 6.1 µM at Lck; over 11.4 µM on Itk; 1.02 to 6.1 µM on c-Met. Besides, the results for the IC50 at EGFR, at IGFR-1 and on AKT were 1.02 to 6.1 µM, under 1.02 µM and over 11.4 µM, respectively.
As for `COc1cc(Nc2ncnc(Nc3ccccn3)n2)cc(OC)c1OC` [Compound 40], the IC50 at Kdr, on Zap-70, on EPHB4, on Lck, at Itk and at c-Met was over 12.7 µM throughout. Also, the IC50 on EGFR, at IGFR-1 and on AKT was over 12.7 µM in each case.
Consider `COc1cc(Nc2ncnc(Nc3ccc(NC(=O)OC(C)(C)C)cc3)n2)cc(OC)c1OC` [Compound 69], for which the IC50 on Kdr was 0.854 to 5.12 µM; at Zap-70, over 9.6 µM; at EPHB4 it was over 9.6 µM; on Lck, 0.854 to 5.12 µM; on Itk it was over 9.6 µM; on c-Met, over 9.6 µM. In addition, the IC50 at EGFR, at IGFR-1 and on AKT was over 9.6 µM each time.
As for `FC(F)C(F)(F)Oc1cccc(Nc2ncnc(-c3ccnc(Cl)c3)n2)c1` [Compound 330], the IC50 on Kdr is over 11.3 µM; on Zap-70, over 11.3 µM; at EPHB4 it was 6 to 8.76 µM; at Lck, over 11.3 µM; at Itk, over 11.3 µM; at c-Met, over 11.3 µM. For the same molecule, the IC50 was over 11.3 µM on EGFR, 8.76 to 11.3 µM at IGFR-1 and over 11.3 µM on AKT.
As to `COc1cc(Nc2ncnc(Nc3cccc(OCc4ccccc4)c3)n2)cc(OC)c1OC` [Compound 73], the IC50 on Kdr, on Zap-70, on EPHB4, at Lck, at Itk and at c-Met was over 9.79 µM each time. Moreover, the IC50 on EGFR, against IGFR-1 and at AKT was over 9.79 µM each time.
Take `COc1cc(Nc2ncnc(-n3cc(C#N)c4ccccc43)n2)cc(OC)c1OC` [Compound 332]: the IC50 was 0.994 to 5.96 µM on Kdr; over 11.2 µM on Zap-70; 0.994 to 5.96 µM on EPHB4; 8.7 to 11.2 µM at Lck; over 11.2 µM at Itk; 5.96 to 8.7 µM at c-Met. In addition, the values for the IC50 at EGFR, against IGFR-1 and on AKT were over 11.2 µM, 5.96 to 8.7 µM and over 11.2 µM, respectively.
For the molecule `COc1cc(Nc2ncnc(-c3ccc(C)cc3)n2)cc(OC)c1OC` [Compound 221], the IC50 on Kdr is 1.14 to 6.81 µM; on Zap-70, over 12.8 µM; on EPHB4 it was 1.14 to 6.81 µM; on Lck, over 12.8 µM; on Itk, over 12.8 µM; at c-Met it was over 12.8 µM. Moreover, the IC50 on EGFR was over 12.8 µM; on IGFR-1, under 1.14 µM; on AKT, over 12.8 µM.
In the case of `COc1cc(Nc2ncnc(-n3c(Nc4ccc(C#N)cc4)nc4ccccc43)n2)cc(OC)c1OC` [Compound 381], the IC50 is 4.85 to 7.08 µM on Kdr; over 9.1 µM at Zap-70; 0.809 to 4.85 µM at EPHB4; 7.08 to 9.1 µM on Lck; over 9.1 µM at Itk; 7.08 to 9.1 µM on c-Met. Further, the IC50 on EGFR, on IGFR-1 and on AKT was over 9.1 µM in each case.
Take `COc1cc(NC(=O)Nc2ncnc(-c3ccncc3)n2)cc(OC)c1OC` [Compound 1118]: the KDR-1 entry at Kdr is reported as “E (E>4.5 ug/mL)”. In addition, the Zap-1 entry at Zap-70 is recorded as “E (E>4.5 ug/mL)”. Also, the EPHB4-1 entry at EPHB4 was “E (E>4.5 ug/mL)”. On Lck, the Lck-1 entry is reported as “E (E>4.5 ug/mL)”. For the same molecule, the Itk-1 entry on Itk is “E (E>4.5 ug/mL)”. Besides, the Met-1 entry on c-Met is given as “E (E>4.5 ug/mL)”. In addition, at EGFR, the EGFR-1 result is “B (B>0.4 and <2.4 ug/mL)”. Further, the IGFR-1 result on IGFR-1 was “E (E>4.5 ug/mL)”. Besides, the AKT3-1 entry at AKT is reported as “E (E>4.5 ug/mL)”.
As for `COc1cc(Nc2ncnc(Nc3ccncc3)n2)cc(OC)c1OC` [Compound 39], the IC50 on Kdr, at Zap-70, at EPHB4, at Lck, at Itk and on c-Met was over 12.7 µM in each case. Moreover, the IC50 on EGFR, at IGFR-1 and at AKT was over 12.7 µM in each case.
